Laboratory results as given in patent US8778617B2, “Method for determining the binding constant of high affinity compounds” (Hoffmann-La Roche Inc., priority 2010, dated 2014).
Blank lines part the entries; values can stand above or below the compound they belong to.

Legend:
[1] = Equilibrium dialysis, excipient binding to gamma-cyclodextrin; conditions: γ-Cyclodextrin 2.5% (m/V); membrane cut off 1 kDa; Warfarin 0.01 mM to 0.4 mM; UV
Description: (§1) A reusable 96-well Micro-Equilibrium dialysis Device 96 chamber was used for the following experiments. The chamber system consists of 10 Teflon™ bars, wherein semipermeable membranes (see 1.2 Membranes) were placed between two Teflon™ bars each to form two compartment of each well.
(§2) 2) The protein chamber (chamber 2) is filled with buffer and the other excipients to the final volume of approximately 100-150 ul. It is important that on each side the volume is exactly the same.
(§3) 5) The chamber system was shaken for 1 hour, then incubated over night (approximately 12 hours). Long duration shaking should be avoided due to the risk of higher evaporation caused by the generated heat.
(§4) 6) After reaching the equilibrium, a sample from the sink chamber (reference, binding study II with sink compound and HSA), or from the protein chamber (reference, binding study I with sink compound alone) was transferred to a half-area UV-plate and analyzed spectrometrically (spectra max, 190 Plate Reader; 250-500 nm) or it was analysed by HPLC.

[2] = Equilibrium dialysis, binding to beta-hydroxypropyl-cyclodextrine as sink compound; conditions: membrane cut off 1 kDa; for fb(%) excipient binding level: Warfarin 0.01 mM to 0.4 mM, UV; for Average Binding [%] to beta-hydroxypropyl-cyclodextrine: beta-hydroxypropyl-cyclodextrine 10% (m/V), test compound 0.02 mM-0.06 mM, DMSO 6% (V/V)
Description: A reusable 96-well Micro-Equilibrium dialysis Device 96 chamber was used for the following experiments. The chamber system consists of 10 Teflon™ bars, wherein semipermeable membranes (see 1.2 Membranes) were placed between two Teflon™ bars each to form two compartment of each well. 2) The protein chamber (chamber 2) is filled with buffer and the other excipients to the final volume of approximately 100-150 ul. […] 5) The chamber system was shaken for 1 hour, then incubated over night (approximately 12 hours). Long duration shaking should be avoided due to the risk of higher evaporation caused by the generated heat.

[3] = Equilibrium dialysis, binding to combination of PVP25 and beta-hydroxypropyl-cyclodextrin as sink compound; conditions: PVP 25 4% (m/V) + β-Hydroxypropyl-cyclodextrin 4% (m/V); membrane cut off 1 kDa; test compound 0.02 mM to 0.6 mM
Description: as §1, §2
(§5) with PVP and PVP in combination with cyclodextrines as sink compound in chamber the volume was 100 μl. (PVP 15 4% (m/V), PVP 25 4% (m/V), PVP 25 4% (m/V)+β-Hydroxypropyl-cyclodextrin 4% (m/V))
as §3, §4

[4] = molecular target: human serum albumin (HSA) (Homo sapiens, UniProt P02768); experiment: Assay with PVP 25 (sink compound) and human serum albumin, new approach; assay type: in vitro ADME; conditions: pH 7.4, PVP 25 4.0% (m/V) as sink compound, HSA 60 mM, membrane MWCO 3.5 kDa, test compound 0.02 mM to 0.6 mM, HPLC; for fraction bound to HSA: read-out: fu (%) newApproach (binding level to HSA)
Description: as §2
End concentration of HSA: 60 mM
as §3, §4
The distribution coefficient and the binding constant can be calculated with binding studies. The binding of drugs to HSA is a reversible process which can be described by the following equilibrium [Du]+[HSA]·[D·HSA]
The binding constant KHSA can be converted to the fraction unbound fu with the following formula derived from the law of mass:
The binding constant to HSA (KHSA) (2) can be calculated from the combination of partition coefficients to PVP (DCPVP) (3) and to HSA in the presence of PVP (DCHSA′) (3). KHSA=DCPVP·DCHSA′ (2)
Vtotal is total volume in the dialysis chamber (200 μl) and VHSA and VPVP are the volumes of HSA and PVP 25, which can be calculated from the density and the weighted sample
Analytics was carried out on an HPLC-system (Agilent 1100). The separations were performed on a RP column (Chromolith flash, RP18e, 4.6×25 mm). Samples were eluted with gradient of water with 0.05% formic acid (A) and Acetonitril (B).

plasma protein [5] = conditions: conventional methods, literature values; cited from earlier work
[6] = Equilibrium dialysis, binding to PVP 15; conditions: PVP 15 40 g/l; drugs 0.02-0.6 mM
Description: as §1, §2, §5, §3, §4
(§6) Concentrations of the drugs: 0.02-0.6 mM
(§7) Amounts of PVP 15 and PVP25: each 40 g/l

[7] = Equilibrium dialysis, binding to PVP 25; conditions: PVP25 40 g/l; drugs 0.02-0.6 mM
Description: as §1, §2, §5, §3, §4, §6, §7

plasma protein [8] = experiment: Protein binding determined with conventional methods (literature values / inhouse); assay type: in vitro ADME; conditions: read-out: fu (%) Literature (binding level)
Excerpt: The determined binding levels of the test compound in example 6 (“new approach”) were compared with the values determined with conventional methods (literature values).

Sequence of human serum albumin (HSA) (P02768 25-609): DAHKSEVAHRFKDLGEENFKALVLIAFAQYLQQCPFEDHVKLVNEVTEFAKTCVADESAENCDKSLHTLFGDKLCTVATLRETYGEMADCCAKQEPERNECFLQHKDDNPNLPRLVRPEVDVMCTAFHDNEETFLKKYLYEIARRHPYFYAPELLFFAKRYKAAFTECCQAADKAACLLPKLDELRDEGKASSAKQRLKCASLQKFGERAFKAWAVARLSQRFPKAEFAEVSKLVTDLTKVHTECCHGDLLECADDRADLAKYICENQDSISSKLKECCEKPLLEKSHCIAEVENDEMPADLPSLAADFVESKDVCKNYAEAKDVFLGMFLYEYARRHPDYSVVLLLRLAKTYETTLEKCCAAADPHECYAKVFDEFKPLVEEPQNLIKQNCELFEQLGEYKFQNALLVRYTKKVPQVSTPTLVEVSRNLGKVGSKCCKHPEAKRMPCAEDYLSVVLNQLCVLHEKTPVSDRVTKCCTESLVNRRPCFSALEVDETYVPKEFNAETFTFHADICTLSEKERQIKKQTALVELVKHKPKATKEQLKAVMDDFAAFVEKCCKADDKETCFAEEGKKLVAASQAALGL

fb(%) excipient binding level [1]: 6.0%
fb(%) excipient binding level ([2]; β-Hydroxypropyl-cyclodextrin 1% (m/V)): 6.8%
fb(%) excipient binding level ([2]; β-Hydroxypropyl-cyclodextrin 10% (m/V)): 27.6%
fb(%) excipient binding level [3]: 27.9%
Structure (SMILES): CC(=O)CC(c1ccccc1)c1c(O)c2ccccc2oc1=O (racemic) [Warfarin, (RS)-4-hydroxy-3-(3-oxo-1-phenylbutyl)-2H-chromen-2-one]

Average Binding [%] to beta-hydroxypropyl-cyclodextrine [2]: 23.1%
Average binding [%] to PVP15 [6]: 21.7%
Average binding [%] to PVP25 [7]: 46.4%
Structure (SMILES): O=C(O)Cc1ccccc1Nc1c(Cl)cccc1Cl [Diclofenac, 2-(2-(2,6-dichlorophenylamino)phenyl)acetic acid]

Average binding [%] to PVP15 [6]: 37.0%
Average binding [%] to PVP25 [7]: 49.4%
Structure (SMILES): NS(=O)(=O)c1cc(C(=O)O)c(NCc2ccco2)cc1Cl [Furosemid, 4-chloro-2-(furan-2-ylmethylamino)-5-sulfamoylbenzoic acid]

fraction bound to HSA [4]: 1
fraction bound (plasma protein [8]): 0.997
Structure (SMILES): COc1ccc(Cl)cc1C(=O)NCCc1ccc(S(=O)(=O)NC(=O)NC2CCCCC2)cc1 [Glibenclamid, 5-chloro-N-(4-[N-(cyclohexylcarbamoyl)sulfamoyl]phenethyl)-2-methoxybenzamide]

fraction bound [4]: 99.6%
Structure (SMILES): CN1/C(=C(/O)Nc2ccccn2)C(=O)c2ccccc2S1(=O)=O [Piroxicame, (8E)-8-[hydroxy-(pyridin-2-ylamino)methylidene]-9-methyl-10,10-dioxo-10λ6-thia-9-azabicyclo[4.4.0]deca-1,3,5-trien-7-one]
fu (%) Literature (binding level) (plasma protein [5]): 99.0%

The next lines start with the compound.

Structure (SMILES): NC(=O)N1c2ccccc2C=Cc2ccccc21 [Carbamazepin]
Average Binding [%] to beta-hydroxypropyl-cyclodextrine [2]: 31.3%

Structure (SMILES): CO/N=C(\C(=O)N[C@@H]1C(=O)N2C(C(=O)O)=C(CSc3nc(=O)c(=O)[nH]n3C)CS[C@H]12)c1csc(N)n1 [Ceftriaxone]
Average Binding [%] to beta-hydroxypropyl-cyclodextrine [2]: 14.2%

Structure (SMILES): CN(C)CCCN1c2ccccc2Sc2ccc(Cl)cc21 [Chlorpromazine, 3-(2-chloro-10H-phenothiazin-10-yl)-N,N-dimethyl-propan-1-amine]
fraction bound to HSA [4]: 0.994
fu (%) Literature (binding level) (plasma protein [5]): 97.80%

Structure (SMILES): C=C[C@H]1C[N@@]2CC[C@H]1C[C@H]2[C@H](O)c1ccnc2ccc(OC)cc12 [Quinine]
Average Binding [%] to beta-hydroxypropyl-cyclodextrine [2]: 21.6%
